The supplement of paper PMC11208160

test: recombinant barcode read abundance after kanamycin selection (control-corrected) (log10(CPM+1)); higher = more efficient recombination; sequences stand for … in AGTGCAGAGAAAATCGGCCAGTTTTCTCTGCCTGCAGTCCGCATGCCGT…ATTTATGCAGCGGACTGCCTTTCTCCCAAAGTGATAAACCGGACAGTATCATGGACCGGTTTTCCCGGTAATCCGTATTTGCAAGGTTGGTTTCACT; site = the 11-nt target
Method in brief: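 A promoter, a target, a barcode and the first 104 bridge RNA bases under J23119 made up each oligo. Oligos were Gibson-cloned into a vector bearing the other 73 bp and a T7-inducible recombinase, then co-electroporated into E. coli with a donor plasmid and plated in duplicate on chloramphenicol/ampicillin LB agar (control) or chloramphenicol/ampicillin/kanamycin with 0.1 mM IPTG. Recombination efficiency is the averaged, control-corrected counts per million of recombinant-junction barcodes. Reported values are log10(CPM+1).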

Sequence	recombinant barcode read abundance (log10)
GGCTCCCCTTGGGTTCTAACCTGTTGCGGCT [GGCTCCCCTCC_LTGcore_CT_RTGcore_AG] (site GGCTCCCCTCC) (LTG core: CT, RTG core: AG)	0.0367
GGCTCCCGATGGGTTCTAACCTGTTGCGGAG [GGCTCCCCTCC_LTGcore_GA_RTGcore_CT] (site GGCTCCCCTCC) (LTG core: GA, RTG core: CT)	0.104
GGCTCCCGATGGGTTCTAACCTGTTGCGGTC [GGCTCCCCTCC_LTGcore_GA_RTGcore_GA] (site GGCTCCCCTCC) (LTG core: GA, RTG core: GA)	0.109
GGCTCCCTATGGGTTCTAACCTGTTGCGGTA [GGCTCCCCTCC_LTGcore_TA_RTGcore_TA] (site GGCTCCCCTCC) (LTG core: TA, RTG core: TA)	0.201
GGCTCCCTCTGGGTTCTAACCTGTTGCGGAG [GGCTCCCCTCC_LTGcore_TC_RTGcore_CT] (site GGCTCCCCTCC) (LTG core: TC, RTG core: CT)	0.172
GGGAGCCATTGGGTTCTAACCTGTTGCTGAG [GGGAGCCCTCA_LTGcore_AT_RTGcore_CT] (site GGGAGCCCTCA) (LTG core: AT, RTG core: CT)	0.526
GGGAGCCCGTGGGTTCTAACCTGTTGCTGAG [GGGAGCCCTCA_LTGcore_CG_RTGcore_CT] (site GGGAGCCCTCA) (LTG core: CG, RTG core: CT)	0.27
GGGAGCCCTTGGGTTCTAACCTGTTGCTGAG [GGGAGCCCTCA_LTGcore_CT_RTGcore_CT] (site GGGAGCCCTCA) (LTG core: CT, RTG core: CT)	1.87
GGGAGCCCTTGGGTTCTAACCTGTTGCTGCT [GGGAGCCCTCA_LTGcore_CT_RTGcore_AG] (site GGGAGCCCTCA) (LTG core: CT, RTG core: AG)	0.652
GGGAGCCCTTGGGTTCTAACCTGTTGCTGGC [GGGAGCCCTCA_LTGcore_CT_RTGcore_GC] (site GGGAGCCCTCA) (LTG core: CT, RTG core: GC)	0.0756
GGGAGCCCTTGGGTTCTAACCTGTTGCTGGG [GGGAGCCCTCA_LTGcore_CT_RTGcore_CC] (site GGGAGCCCTCA) (LTG core: CT, RTG core: CC)	0.111
GGGAGCCCTTGGGTTCTAACCTGTTGCTGGT [GGGAGCCCTCA_LTGcore_CT_RTGcore_AC] (site GGGAGCCCTCA) (LTG core: CT, RTG core: AC)	0.208
GGGAGCCGATGGGTTCTAACCTGTTGCTGTC [GGGAGCCCTCA_LTGcore_GA_RTGcore_GA] (site GGGAGCCCTCA) (LTG core: GA, RTG core: GA)	0.0745
GGGAGCCTGTGGGTTCTAACCTGTTGCTGAG [GGGAGCCCTCA_LTGcore_TG_RTGcore_CT] (site GGGAGCCCTCA) (LTG core: TG, RTG core: CT)	0.259
GGGAGCCTGTGGGTTCTAACCTGTTGCTGCA [GGGAGCCCTCA_LTGcore_TG_RTGcore_TG] (site GGGAGCCCTCA) (LTG core: TG, RTG core: TG)	0.285
GGGCGGAACTGGGTTCTAACCTGTTGCGGGT [GGGCGGACTCC_LTGcore_AC_RTGcore_AC] (site GGGCGGACTCC) (LTG core: AC, RTG core: AC)	0.3
GGGCGGAATTGGGTTCTAACCTGTTGCGGAG [GGGCGGACTCC_LTGcore_AT_RTGcore_CT] (site GGGCGGACTCC) (LTG core: AT, RTG core: CT)	0.637

Sequence	recombinant barcode read abundance (log10)
GGGCGGACCTGGGTTCTAACCTGTTGCGGAG [GGGCGGACTCC_LTGcore_CC_RTGcore_CT] (site GGGCGGACTCC) (LTG core: CC, RTG core: CT)	1.4
GGGCGGACTTGGGTTCTAACCTGTTGCGGAC [GGGCGGACTCC_LTGcore_CT_RTGcore_GT] (site GGGCGGACTCC) (LTG core: CT, RTG core: GT)	0.135
GGGCGGACTTGGGTTCTAACCTGTTGCGGGA [GGGCGGACTCC_LTGcore_CT_RTGcore_TC] (site GGGCGGACTCC) (LTG core: CT, RTG core: TC)	1.29
GGGCGGACTTGGGTTCTAACCTGTTGCGGTC [GGGCGGACTCC_LTGcore_CT_RTGcore_GA] (site GGGCGGACTCC) (LTG core: CT, RTG core: GA)	0.104
GGGCGTGCATGGGTTCTAACCTGTTGCCTAG [GGGCGTGCTAG_LTGcore_CA_RTGcore_CT] (site GGGCGTGCTAG) (LTG core: CA, RTG core: CT)	0.233
GGGCGTGCCTGGGTTCTAACCTGTTGCCTAG [GGGCGTGCTAG_LTGcore_CC_RTGcore_CT] (site GGGCGTGCTAG) (LTG core: CC, RTG core: CT)	0.255
GGGCGTGCTTGGGTTCTAACCTGTTGCCTCG [GGGCGTGCTAG_LTGcore_CT_RTGcore_CG] (site GGGCGTGCTAG) (LTG core: CT, RTG core: CG)	0.166
GGGCGTGCTTGGGTTCTAACCTGTTGCCTTA [GGGCGTGCTAG_LTGcore_CT_RTGcore_TA] (site GGGCGTGCTAG) (LTG core: CT, RTG core: TA)	0.139
GGGCGTGGATGGGTTCTAACCTGTTGCCTAG [GGGCGTGCTAG_LTGcore_GA_RTGcore_CT] (site GGGCGTGCTAG) (LTG core: GA, RTG core: CT)	0.0898
GGGCGTGGCTGGGTTCTAACCTGTTGCCTAG [GGGCGTGCTAG_LTGcore_GC_RTGcore_CT] (site GGGCGTGCTAG) (LTG core: GC, RTG core: CT)	0.276
GGGCGTGTTTGGGTTCTAACCTGTTGCCTAG [GGGCGTGCTAG_LTGcore_TT_RTGcore_CT] (site GGGCGTGCTAG) (LTG core: TT, RTG core: CT)	0.0908
GGTGCCCAATGGGTTCTAACCTGTTGCCGAG [GGTGCCCCTCG_LTGcore_AA_RTGcore_CT] (site GGTGCCCCTCG) (LTG core: AA, RTG core: CT)	0.135
GGTGCCCACTGGGTTCTAACCTGTTGCCGGT [GGTGCCCCTCG_LTGcore_AC_RTGcore_AC] (site GGTGCCCCTCG) (LTG core: AC, RTG core: AC)	0.066
GGTGCCCAGTGGGTTCTAACCTGTTGCCGCT [GGTGCCCCTCG_LTGcore_AG_RTGcore_AG] (site GGTGCCCCTCG) (LTG core: AG, RTG core: AG)	0.102
GGTGCCCCTTGGGTTCTAACCTGTTGCCGAT [GGTGCCCCTCG_LTGcore_CT_RTGcore_AT] (site GGTGCCCCTCG) (LTG core: CT, RTG core: AT)	0.19
GGTGCCCCTTGGGTTCTAACCTGTTGCCGCC [GGTGCCCCTCG_LTGcore_CT_RTGcore_GG] (site GGTGCCCCTCG) (LTG core: CT, RTG core: GG)	0.0795
GGTGCCCCTTGGGTTCTAACCTGTTGCCGCG [GGTGCCCCTCG_LTGcore_CT_RTGcore_CG] (site GGTGCCCCTCG) (LTG core: CT, RTG core: CG)	0.222
